From the supplement of paper PMC8960247
± gives the standard error.

How the values were obtained:
621-102 (TSC2-deficient) [1] = assay: relative viability vs DMSO; higher = less cytotoxic; conditions: serum: 10% FBS, 72 h
621-103 (TSC2-rescued) = assay: as above; conditions: serum: 10% FBS, 72 h
621-102 (TSC2-deficient) [2] = assay: relative viability vs DMSO (fraction); higher = less cytotoxic; conditions: serum: 0.1% FBS, 72 h
UMB1949 (TSC2-deficient) = assay: as above; conditions: serum: 0.1% FBS, 72 h;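 also: renal angiomyolipoma cell lines screened in 384-well plates, viability normalized per plate to DMSO-treated cells, each plate carrying 50 nM rapamycin and 1 µM staurosporine controls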

Row | Compound | relative viability (621-102 (TSC2-deficient) [1]; 0.0001 µM) | relative viability (621-102 (TSC2-deficient) [1]; 0.001 µM) | relative viability (621-102 (TSC2-deficient) [1]; 0.01 µM) | relative viability (621-102 (TSC2-deficient) [1]; 0.1 µM) | relative viability (621-102 (TSC2-deficient) [1]; 1 µM) | relative viability (621-102 (TSC2-deficient) [1]; 10 µM) | relative viability (621-103 (TSC2-rescued); 0.0001 µM) | relative viability (621-103 (TSC2-rescued); 0.001 µM) | relative viability (621-103 (TSC2-rescued); 0.01 µM) | relative viability (621-103 (TSC2-rescued); 0.1 µM) | relative viability (621-103 (TSC2-rescued); 1 µM) | relative viability (621-103 (TSC2-rescued); 10 µM) | relative viability (621-102 (TSC2-deficient) [2]; 0.0128 nM) | relative viability (621-102 (TSC2-deficient) [2]; 0.064 nM) | relative viability (621-102 (TSC2-deficient) [2]; 0.32 nM) | relative viability (621-102 (TSC2-deficient) [2]; 1.6 nM) | relative viability (621-102 (TSC2-deficient) [2]; 8 nM) | relative viability (621-102 (TSC2-deficient) [2]; 40 nM) | relative viability (621-102 (TSC2-deficient) [2]; 200 nM) | relative viability (621-102 (TSC2-deficient) [2]; 1000 nM) | relative viability (621-102 (TSC2-deficient) [2]; 5000 nM) | relative viability (UMB1949 (TSC2-deficient); 0.0128 nM) | relative viability (UMB1949 (TSC2-deficient); 0.064 nM) | relative viability (UMB1949 (TSC2-deficient); 0.32 nM) | relative viability (UMB1949 (TSC2-deficient); 1.6 nM) | relative viability (UMB1949 (TSC2-deficient); 8 nM) | relative viability (UMB1949 (TSC2-deficient); 40 nM) | relative viability (UMB1949 (TSC2-deficient); 200 nM) | relative viability (UMB1949 (TSC2-deficient); 1000 nM) | relative viability (UMB1949 (TSC2-deficient); 5000 nM)
1 | Cc1cnc(NC(=O)Nc2cc(Br)c(C)cc2OC[C@@H]2CNCCO2)cn1 | 72.1 ± 3.7% | 87.9 ± 6.2% | 95 ± 2.5% | 75.8 ± 2.3% | 29.1 ± 0.86% | 26.8 ± 0.86% | 109.5 ± 0.45% | 103.7 ± 0.67% | 102.8 ± 0.59% | 109 ± 4.1% | 84.09 ± 0.55% | 33.7 ± 0.83% | 0.474 | 0.234 | 0.185 | 0.103 | 0.0749 | 0.0522 | 0.0206 | 0.0139 | 0.0111 | 0.911 | 0.655 | 0.375 | 0.158 | 0.27 | 0.00749 | 0.0015 | 0.00258 | 0.00665
2 | Cn1cc(CNCC2CCN(c3ncc(C(=O)NO)cn3)CC2)c2ccccc21 | 95.9 ± 2.5% | 86.5 ± 1.7% | 59.3 ± 0.89% | 36.84 ± 0.15% | 25.2 ± 0.97% | 18.08 ± 0.036% | 91.4 ± 0.56% | 78.47 ± 0.52% | 44.98 ± 0.16% | 3.52 ± 0.045% | 2.06 ± 0.065% | 1.27 ± 0.15% | 1.02 | 0.835 | 0.708 | 0.585 | 0.288 | 0.0238 | 0.00256 | 0.000673 | 0.000759 | 1.08 | 0.949 | 0.9 | 0.687 | 0.00555 | 0.00221 | 0.0013 | 0.000408 | 0.000355
3 | c1ccc2c(-c3cnn4cc(-c5ccc(N6CCNCC6)cc5)cnc34)ccnc2c1 | 92.1 ± 4.3% | 95.1 ± 3.5% | 92.2 ± 3.1% | 91.6 ± 2.6% | 71.9 ± 2.9% | 0.885 ± 0.12% | 90.6 ± 2.2% | 104 ± 0.35% | 93.2 ± 1.9% | 88 ± 1.8% | 62.5 ± 2.2% | 0.919 ± 0.12% | 0.953 | 0.778 | 0.956 | 0.795 | 0.719 | 0.83 | 0.534 | 0.0661 | 0.0132 | 1.1 | 1.14 | 1.15 | 1.08 | 1.07 | 1.1 | 0.943 | 0.00737 | 0.0056
